Laboratory results from PMC7290078, “Agonist bias and agonist‐dependent antagonism at corticotrophin releasing factor receptors” (Pharmacology Research & Perspectives, 2020).
No end group written: not given here.

How the values were obtained:
CRF2 receptor = system: CRF2 receptor; design: method as in PMID 11123370, PMID 12615952; details: cited from earlier work
CRF1 receptor (hCRF1α) = molecular target: T1, CRF1 receptor (hCRF1α) (Homo sapiens, UniProt P34998); experiment: Antagonism of agonist-mediated IP1 accumulation in Cos7 cells expressing CRF1 receptors; type: cell-based; details: for effect on agonist efficacy β: could not be determined, assumed; for allosteric effect α: operational model of allosterism; for antagonist potency (pKB): Gaddum method for insurmountable antagonism, mean ± SEM, n = 5
T1 construct: host or cells: Cos7 cells, transient transfection (PEI), pcDNA3.0/3.1 vector
T1 sequence (P34998 24-415): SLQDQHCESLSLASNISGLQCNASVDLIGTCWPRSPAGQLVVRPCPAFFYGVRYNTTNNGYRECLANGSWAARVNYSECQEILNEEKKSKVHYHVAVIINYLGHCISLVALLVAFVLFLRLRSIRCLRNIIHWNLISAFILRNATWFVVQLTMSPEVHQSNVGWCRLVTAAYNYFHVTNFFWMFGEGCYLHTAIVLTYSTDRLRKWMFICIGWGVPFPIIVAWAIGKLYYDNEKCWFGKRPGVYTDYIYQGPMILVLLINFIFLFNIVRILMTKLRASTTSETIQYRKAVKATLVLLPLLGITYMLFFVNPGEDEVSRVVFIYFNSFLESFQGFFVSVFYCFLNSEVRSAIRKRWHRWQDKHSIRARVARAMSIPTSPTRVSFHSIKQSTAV
Description: Plasmids containing hCRF1α and hCRF2α (GenBank accession numbers AY457172 and AY449734) were obtained from the cDNA Resource Centre (Bloomsburg University) and are referred to as CRF1 and CRF2 in this manuscript. Hemagglutinin (HA) epitope‐tagged human Calcitonin (CT) receptor (CT(a) splice variant) and myc‐tagged human RAMP1 were used as described previously. ^27 HA‐tagged human calcitonin receptor‐like receptor (CLR), N‐terminal FLAG‐tagged human RAMP3 and N‐terminal myc‐tagged human RAMP3 were a gift from Professor David Poyner (Aston University) and Professor Patrick Sexton (Monash University), respectively. N‐terminal FLAG‐tagged human RAMP2 was used as described previously. ^28 All receptors and RAMPs were cloned in pcDNA3.0 or pcDNA3.1 plasmid vectors. All plasmid inserts were sequenced at the Centre for Genomics, Proteomics and Metabolomics (University of Auckland) and the sequences were verified prior to use.
Cos7, HEK‐293S, and HEK‐293T cells were cultured as described previously. ^28 , ^29 Cos7 cells were originally supplied by the ATCC to Associate Professor Nigel Birch (University of Auckland). HEK‐293S cells were a gift from Professor David Poyner (Aston University) and HEK‐293T cells a gift from Professor John Taylor (University of Auckland). Briefly, all cell lines were cultured in Dulbecco's Modified Eagle Medium (DMEM) supplemented with 8% heat inactivated fetal bovine serum (FBS) and maintained in a humidified incubator at 37°C with 5% CO2. For transfection, cells were counted (Countess CounterTM; Life Technologies) and plated at a density of 20 000 cells per well in 96‐well plates. The cells were transiently transfected 48 hours prior to assaying using polyethylenimine (PEI), as described previously. ^28 , ^29 In all experiments a total of 0.25 μg DNA was transfected per well. In the majority of experiments 0.25 μg DNA of receptor‐containing plasmid or the pcDNA3.1 plasmid without an insert was used. For experiments involving RAMPs, 0.125 μg of receptor DNA and 0.125 μg of RAMP‐containing plasmid DNA were transfected to give a 1:1 ratio of receptor to RAMP. Where the RAMP or receptor were transfected alone, the ratio of DNA was made up with the pcDNA3.1 plasmid.
The IP‐one Gq assay kit (Cisbio) was used to quantify accumulated myo‐inositol‐1‐phosphate (IP1), a by‐product of IP3 produced after receptor‐mediated Gαq activation in Cos7 and HEK‐293S cells. Briefly, culture media was removed and replaced with DMEM containing 0.1% BSA for 30 minutes at 37°C. Cells were then incubated with media containing 50 mmol/L lithium chloride (LiCl) for an additional 0‐120 minutes (time courses) or 90 minutes at 37°C in the presence or absence of an antagonist. Agonist concentrations of 1 pmol/L to 10 µmol/L were used for agonist only assays or 10 pmol/L to 10 µmol/L concentrations for antagonist experiments. After cell stimulation, 14 µL of stimulation buffer was added to each well. Three microlitres of each detection antibody were added in turn to the plate and incubated at room temperature for 1 hour. Fifteen microliters of sample was then transferred to a 384‐well optiplate and read by an Envision plate reader (PerkinElmer). IP1 concentrations were calculated from a standard curve generated in duplicate.
In all experiments the position of peptides and antagonists (pharmacology) or transfected receptors (ELISAs) on assay plates was randomized during each independent experiment, which are independent biological replicates. In all cases, duplicate, triplicate, or quadruplicate technical replicates were conducted for each independent experiment. For transfected cell experiments, each independent experiment involved plating cells from a distinct passage, separate transient transfection and separate signaling or ELISA assays, constituting experimental n. […]

Row | Molecule | binding affinity in words (CRF2 receptor) | potency against CRF‐mediated relative to UCN1‐mediated IP1 accumulation (CRF1 receptor (hCRF1α); CRF1 receptor) | mode of antagonism (CRF1 receptor (hCRF1α); IP1 accumulation) | effect on agonist efficacy β (CRF1 receptor (hCRF1α); agonist CRF, IP1, CRF1) | allosteric effect α (CRF1 receptor (hCRF1α); agonist CRF, IP1, CRF1) | antagonist potency (pKB) (CRF1 receptor (hCRF1α); agonist CRF, IP1, hCRF1α) | effect on agonist efficacy β (CRF1 receptor (hCRF1α); agonist UCN1, IP1, CRF1) | allosteric effect α (CRF1 receptor (hCRF1α); agonist UCN1, IP1, CRF1) | antagonist potency (pKB) (CRF1 receptor (hCRF1α); agonist UCN1, IP1, hCRF1α) | effect on agonist E max (CRF1 receptor (hCRF1α); antagonism of CRF and UCN1‐mediated IP1, CRF1 receptor, F tests)
1 | IVLSLDVPIGLLQILLEQARARAAREQATTNARILARVGHC-NH2 (C-terminus assumed) [UCN2] | high affinity | – | – | – | – | – | – | – | – | –
2 | CCC(CC)Nc1cc(C)nc(Oc2c(C)cc(C)cc2C)c1C [CP‐376,395] | – | approximately 8 fold | non‐competitive antagonist of IP1 accumulation | ~ 0 | 0.03 | 7.55 ± 0.10 | ~ 0 | 0.15 | 6.67 ± 0.08 | a reduction in E max
